Laboratory results as given in the supplement of paper PMC10307832.

Tests used:
Test in all cases: relative viability (nuclei count vs DMSO), 5 days (fraction); higher = more cells survive
[1] = compound: Cc1ccc(C(=O)Nc2ccc(CN3CCN(C)CC3)c(C(F)(F)F)c2)cc1C#Cc1cnc2cccnn12 [Ponatinib] + N=C(N)NC(=N)NCCc1ccccc1 [Phenformin] (partner 250 µM)
Outline: (§1)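 Lung cancer cell lines in 1536-well plates were dosed by pin tool the day after seeding, either with one drug alone or with a fixed anchor-drug dose plus five library-drug doses (not always all listed) in √10 steps. After 5 days, cells were fixed and their nuclei stained in one step (final 0.05% Triton X-100, 1% formaldehyde, 1 ug/ml Hoechst), then counted on 4× images. Relative viability is the nuclei count in treated wells divided by that in vehicle wells. Values are medians of duplicate plates.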

[2] = compound: Cc1ccc(C(=O)Nc2ccc(CN3CCN(C)CC3)c(C(F)(F)F)c2)cc1C#Cc1cnc2cccnn12 [Ponatinib] + CC(=O)Nc1cccc(-n2c(=O)n(C3CC3)c(=O)c3c(Nc4ccc(I)cc4F)n(C)c(=O)c(C)c32)c1 [Trametinib] (partner 0.02 µM)
Outline: as §1

[3] = compound: Cc1ccc(C(=O)Nc2ccc(CN3CCN(C)CC3)c(C(F)(F)F)c2)cc1C#Cc1cnc2cccnn12 [Ponatinib] + Nc1ncn([C@H]2C[C@H](O)[C@@H](CO)O2)c(=O)n1 [Decitabine] (partner 2 µM)
Outline: as §1

[4] = compound: Cc1ccc(Nc2nccc(N(C)c3ccc4c(C)n(C)nc4c3)n2)cc1S(N)(=O)=O [Pazopanib] + CC1(C)CCC(c2ccc(Cl)cc2)=C(CN2CCN(c3ccc(C(=O)NS(=O)(=O)c4ccc(N[C@H](CCN5CCOCC5)CSc5ccccc5)c(S(=O)(=O)C(F)(F)F)c4)cc3)CC2)C1 [Navitoclax] (partner 0.5 µM)
Outline: as §1

Cell Line	relative viability ([1]; first compound 0.002 µM)	relative viability ([1]; first compound 0.006325 µM)	relative viability ([1]; first compound 0.06325 µM)	relative viability ([1]; first compound 0.2 µM)	relative viability ([2]; first compound 0.002 µM)	relative viability ([2]; first compound 0.006325 µM)	relative viability ([2]; first compound 0.06325 µM)	relative viability ([2]; first compound 0.2 µM)	relative viability ([3]; first compound 0.002 µM)	relative viability ([3]; first compound 0.006325 µM)	relative viability ([3]; first compound 0.06325 µM)	relative viability ([3]; first compound 0.2 µM)	relative viability ([4]; first compound 0.01 µM)	relative viability ([4]; first compound 0.03162 µM)	relative viability ([4]; first compound 0.1 µM)	relative viability ([4]; first compound 0.3162 µM)	relative viability ([4]; first compound 1 µM)
NCI-H2342	0.5	0.488	0.538	0.595	0.741	0.802	0.936	0.83	0.74	0.703	0.837	0.77	–	–	–	–	–
HCC-15	0.445	0.494	0.547	0.467	0.348	0.381	0.446	0.338	0.666	0.671	0.744	0.634	0.698	0.706	0.743	0.713	0.815
A-427	0.34	0.398	0.244	0.225	0.79	0.732	0.719	0.531	0.547	0.507	0.592	0.49	1.03	1.07	0.977	0.941	1.04
NCI-H2228	0.356	0.356	0.342	0.357	0.546	0.656	0.495	0.547	–	–	–	–	0.847	1.1	1.03	0.98	0.913
NCI-H1734	0.395	0.393	0.347	0.303	0.63	0.658	0.527	0.505	0.477	0.459	0.524	0.429	0.796	0.795	0.854	0.875	0.901
NCI-H2347	0.34	0.393	0.38	0.34	0.241	0.272	0.332	0.264	0.663	0.571	0.614	0.605	0.722	0.805	0.836	0.842	0.858
PC-3 [JPC-3]	0.461	0.502	0.502	0.477	–	0.769	0.88	0.699	–	0.871	0.849	0.838	0.762	0.794	0.904	0.723	0.793
NCI-H1915	0.332	0.363	0.371	0.356	0.303	0.321	0.288	0.24	0.244	0.274	0.246	0.257	0.821	0.782	0.78	0.768	0.729
NCI-H1666	0.564	0.538	0.564	0.585	0.83	0.786	0.827	0.777	0.752	0.745	0.812	0.766	1.06	0.975	0.926	1.22	1.01
HCC-366	0.602	0.587	0.622	0.515	0.32	0.417	0.428	0.273	0.336	0.317	0.387	0.37	1.02	1.11	1.14	0.984	1.19
NCI-H1395	0.417	0.432	0.386	0.377	0.905	1.01	0.976	0.78	0.816	0.714	0.682	0.615	1.15	1.25	1.24	1.33	1.28
NCI-H727	0.537	0.507	0.605	0.532	0.415	0.388	0.398	0.37	0.909	1.01	0.838	0.933	0.506	0.417	0.656	0.513	0.572
RERF-LC-KJ	0.41	0.417	0.482	0.426	0.826	0.803	1.03	0.852	0.646	0.724	0.835	0.665	0.906	1.01	1.06	0.879	1.04
NCI-H1623	0.567	0.606	0.611	0.627	–	–	–	–	–	–	–	–	–	–	–	–	–
Calu-6	–	–	–	–	–	–	–	–	–	–	–	–	0.87	0.863	0.848	0.768	0.842
LC-2-ad	0.415	0.542	0.498	0.462	0.809	0.822	0.62	0.533	0.738	0.684	0.696	0.582	0.411	0.48	0.588	0.485	0.335
CAL-12T	0.529	0.541	0.668	0.601	0.315	0.311	0.332	0.239	–	–	–	–	1.26	1.15	1.25	1.27	1.34
SK-LU-1	0.445	0.469	0.475	0.328	0.469	0.554	0.393	0.347	0.562	0.569	0.639	0.555	0.828	0.898	0.994	0.964	0.749
